Broadly, the EC50 is the concentration that produces a half-maximal response. Read a low EC50 as an effect from little substance.

Read-outs that look alike come from different tables or passages of the source.

Among the data in patent US9382254B2, “Compounds and pharmaceutical compositions thereof for the treatment of cystic fibrosis” (Galapagos NV, priority 2013, dated 2016) are EC50 values, retold here.

What all share (format): cell-based
The target of assay [1] is T1, CFTR-S549N (Homo sapiens, UniProt P13569, S549N).
T1 construct: expressed in transfected cells
T1 sequence (P13569 whole entry S549N): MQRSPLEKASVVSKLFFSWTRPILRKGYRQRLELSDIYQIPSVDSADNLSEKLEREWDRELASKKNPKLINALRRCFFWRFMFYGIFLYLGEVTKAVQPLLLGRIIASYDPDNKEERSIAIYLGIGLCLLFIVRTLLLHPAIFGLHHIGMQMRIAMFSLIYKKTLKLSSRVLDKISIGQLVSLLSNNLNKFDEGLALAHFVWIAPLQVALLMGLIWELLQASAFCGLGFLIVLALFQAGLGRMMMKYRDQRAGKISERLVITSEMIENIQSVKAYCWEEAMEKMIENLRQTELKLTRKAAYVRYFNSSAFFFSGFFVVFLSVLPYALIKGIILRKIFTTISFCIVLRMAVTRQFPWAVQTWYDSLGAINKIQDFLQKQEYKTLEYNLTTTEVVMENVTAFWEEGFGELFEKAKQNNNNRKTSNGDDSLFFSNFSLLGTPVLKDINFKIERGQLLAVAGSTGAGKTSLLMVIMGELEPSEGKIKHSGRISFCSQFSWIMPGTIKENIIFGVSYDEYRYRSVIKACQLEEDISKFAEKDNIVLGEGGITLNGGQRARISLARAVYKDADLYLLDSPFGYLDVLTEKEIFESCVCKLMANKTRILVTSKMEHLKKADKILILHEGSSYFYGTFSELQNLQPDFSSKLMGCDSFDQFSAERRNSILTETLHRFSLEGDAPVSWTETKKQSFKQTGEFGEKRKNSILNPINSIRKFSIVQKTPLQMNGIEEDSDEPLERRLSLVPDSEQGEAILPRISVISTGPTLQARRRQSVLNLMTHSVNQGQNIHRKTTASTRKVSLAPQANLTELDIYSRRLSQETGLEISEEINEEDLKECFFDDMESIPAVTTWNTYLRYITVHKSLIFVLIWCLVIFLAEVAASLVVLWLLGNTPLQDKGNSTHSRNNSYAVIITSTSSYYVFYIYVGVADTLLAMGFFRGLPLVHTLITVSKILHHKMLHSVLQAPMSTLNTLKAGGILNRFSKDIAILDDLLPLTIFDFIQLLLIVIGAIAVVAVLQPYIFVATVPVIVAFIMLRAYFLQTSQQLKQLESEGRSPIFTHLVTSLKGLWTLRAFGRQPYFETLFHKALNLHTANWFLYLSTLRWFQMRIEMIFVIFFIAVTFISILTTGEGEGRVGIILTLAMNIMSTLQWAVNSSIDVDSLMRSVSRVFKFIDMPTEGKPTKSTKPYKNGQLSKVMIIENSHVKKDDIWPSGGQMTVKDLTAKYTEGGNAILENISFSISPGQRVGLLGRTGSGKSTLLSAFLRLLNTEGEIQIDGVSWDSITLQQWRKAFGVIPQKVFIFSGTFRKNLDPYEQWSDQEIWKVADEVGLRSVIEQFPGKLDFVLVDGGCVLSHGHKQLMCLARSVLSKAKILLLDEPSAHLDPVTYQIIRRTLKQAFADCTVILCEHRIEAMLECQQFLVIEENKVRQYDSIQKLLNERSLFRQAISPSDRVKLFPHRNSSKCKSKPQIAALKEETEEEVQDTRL
As to the kind of experiment: YFP-halide influx assay for the CFTR-S549N. The source says:
(§1) The YFP halide influx assay measures the functionality of the cystic fibrosis Transmembrane Conductance regulator (CFTR) channels. The assay is used to evaluate the capacity of compounds to increase the channel opening of existing mutant CFTR channels in the membrane. It makes use of the observation that the yellow fluorescent protein (YFP) variant YFP H148Q, I152L, […] has its fluorescence substantially quenched by halide ions like Cl^− and I^−. (Galietta, Haggie, & Verkman, 2001)
(§2) For this purpose, HEK293-cells are seeded in 96 well plates. During seeding, the cells are reverse-transfected with plasmid vectors that direct the expression of the CFTR G551D mutant and of the YFP reporter. Cells are incubated at 37° C., 5% CO2 for 24 hours so as to allow for sufficient expression of the CFTR protein.
(§3) The I^−-induced quenching of fluorescence is recorded immediately after injection of I^− for 7 seconds. The capacity of a compound to increase the channel opening is directly correlated with the decrease in fluorescence, and is expressed as (1-(fluorescence after 7 seconds (F)/fluorescence before injection (F0))) and an EC50 can be derived from a (1-F/F0) vs compound concentration plot.
(§4) Similar YHA assays were developed for other channel gating defective or channel conductance defective CFTR mutants to determine effect of compound on channel activity. Examples of mutants are G178R, G1349D, S549N, R117H, R334W. This assay is also used for additional class I CFTR mutants, including G542X, W1282X; class II mutants including N1303K, and for class III mutants including S1251N.

For assay [2], the target named is T2, CFTR G551D mutant (Homo sapiens, UniProt P13569, G551D).
T2 construct: expressed in transfected cells; host or cells: HEK293 (reverse transfection with plasmid)
T2 sequence (P13569 whole entry G551D): as the sequence (P13569 whole entry S549N) above, with N549S, G551D counted along it
As to the kind of experiment: YFP-halide influx assay for the CFTR-G551D mutation. As to conditions: HEK293 cells, forskolin 10.67 μM. The gist of the method: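 HEK293 cells reverse-transfected with CFTR G551D and YFP H148Q/I152L/F47L halide sensor, expressed 24 h at 37 °C. Iodide-induced fluorescence quench recorded 7 s after I− injection; response = 1−F/F0, with EC50 from plot against compound concentration.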

Assay [3] addresses T3, CFTR-G1349D (Homo sapiens, UniProt P13569, G1349D).
T3 construct: expressed in transfected cells
As to the kind of experiment: YFP-halide influx assay for the CFTR-G1349D.
From the text: as §1, §2, §3, §4

For assay [4], the target named is T4, CFTR ΔF508 mutant (Homo sapiens, UniProt P13569, DEL508-508).
T4 construct: expressed in transfected cells; host or cells: CFBE41o- (adenoviral transduction)
T4 sequence (P13569 with tags, fused parts or gaps DEL508-508): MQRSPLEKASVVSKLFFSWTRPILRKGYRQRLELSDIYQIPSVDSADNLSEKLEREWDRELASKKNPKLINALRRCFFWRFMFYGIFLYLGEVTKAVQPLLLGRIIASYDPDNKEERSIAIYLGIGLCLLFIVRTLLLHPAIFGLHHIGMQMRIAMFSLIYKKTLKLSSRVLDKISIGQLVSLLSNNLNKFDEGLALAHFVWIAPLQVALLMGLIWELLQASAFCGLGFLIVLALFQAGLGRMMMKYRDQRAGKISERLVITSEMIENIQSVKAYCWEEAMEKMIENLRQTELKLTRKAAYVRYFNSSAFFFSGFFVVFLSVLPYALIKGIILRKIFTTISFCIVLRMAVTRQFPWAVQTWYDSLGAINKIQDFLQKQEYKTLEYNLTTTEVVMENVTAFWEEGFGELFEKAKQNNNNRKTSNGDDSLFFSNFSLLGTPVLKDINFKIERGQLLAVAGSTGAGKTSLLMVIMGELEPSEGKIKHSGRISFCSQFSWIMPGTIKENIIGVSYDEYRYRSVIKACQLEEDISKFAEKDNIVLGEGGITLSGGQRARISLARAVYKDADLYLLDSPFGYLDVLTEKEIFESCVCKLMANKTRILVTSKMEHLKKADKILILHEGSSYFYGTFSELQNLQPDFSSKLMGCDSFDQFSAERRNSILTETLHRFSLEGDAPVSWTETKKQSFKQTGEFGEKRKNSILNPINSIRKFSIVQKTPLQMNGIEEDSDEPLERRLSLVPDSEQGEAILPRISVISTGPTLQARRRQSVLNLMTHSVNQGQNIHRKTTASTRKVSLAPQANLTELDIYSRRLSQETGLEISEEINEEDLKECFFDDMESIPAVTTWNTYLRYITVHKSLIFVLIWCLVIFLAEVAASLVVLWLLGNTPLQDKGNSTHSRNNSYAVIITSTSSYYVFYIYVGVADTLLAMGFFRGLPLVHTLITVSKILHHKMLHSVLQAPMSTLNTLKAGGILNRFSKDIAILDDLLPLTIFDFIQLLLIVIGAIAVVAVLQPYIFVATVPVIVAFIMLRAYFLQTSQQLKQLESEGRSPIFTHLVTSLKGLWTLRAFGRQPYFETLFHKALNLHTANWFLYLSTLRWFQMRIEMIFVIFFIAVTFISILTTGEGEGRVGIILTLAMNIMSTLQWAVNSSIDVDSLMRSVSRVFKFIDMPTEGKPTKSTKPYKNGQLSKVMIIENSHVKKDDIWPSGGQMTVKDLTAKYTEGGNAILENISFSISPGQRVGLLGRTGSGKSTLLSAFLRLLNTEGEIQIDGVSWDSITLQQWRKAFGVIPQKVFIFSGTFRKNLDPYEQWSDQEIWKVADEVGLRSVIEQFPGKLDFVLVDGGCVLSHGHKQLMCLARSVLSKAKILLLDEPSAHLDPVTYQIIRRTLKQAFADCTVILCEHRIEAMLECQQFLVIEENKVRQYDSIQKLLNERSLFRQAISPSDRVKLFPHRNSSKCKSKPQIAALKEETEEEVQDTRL
Nature of the assay: YFP-halide influx assay for the CFTR-ΔF508 mutation (384 well, FDSS/μCell). Particulars: CFBE41o- cells, CFTR-ΔF508, 1×D-PBS, fluorescence after 36 seconds. The gist of the method:
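Potentiator read-out as 1−F/F0, F taken 36 s after iodide addition, EC50 fitted against compound concentration. Cells: CFBE41o- expressing ΔF508 CFTR plus halide-sensitive YFP via adenovirus, rescued by 27 °C for 24 h or 24 h modulator at 37 °C.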

Assay [5] addresses T5, CFTR-R117H (Homo sapiens, UniProt P13569, R117H).
T5 construct: expressed in transfected cells
Nature of the assay: YFP-halide influx assay for the CFTR-R117H.
From the text: as §1, §2, §3, §4

Assay [6] deals with T6, CFTR-G178R (Homo sapiens, UniProt P13569, G178R).
T6 construct: expressed in transfected cells
T6 sequence (P13569 whole entry G178R): as the sequence (P13569 whole entry S549N) above, with G178R, N549S counted along it
Nature of the assay: YFP-halide influx assay for the CFTR-G178R.
From the text: as §1, §2, §3, §4

T5 sequence (P13569 whole entry R117H): as the sequence (P13569 whole entry S549N) above, with R117H, N549S counted along it
T3 sequence (P13569 whole entry G1349D): as the sequence (P13569 whole entry S549N) above, with N549S, G1349D counted along it

Regarding `CC(C)(O)C(=O)Nc1sc(S(=O)(=O)c2ccc(C(F)(F)F)cc2F)cc1C(N)=O` [Compound 376, 5-[2-fluoro-4-(trifluoromethyl)phenyl] sulfonyl-2-[(2-hydroxy-2-methyl-propanoyl)amino] thiophene-3-carboxamide], the EC50 in assay [1] worked out at 0.251 µM; in assay [2], 0.522 µM; in assay [3], 0.173 µM; in assay [4], 0.00807 µM; in assay [5], 0.138 µM; in assay [6] it was 0.0869 µM.
As to `CC(C)(O)C(=O)Nc1sc(S(=O)(=O)c2ccc(OC(F)(F)F)c(F)c2)cc1C(N)=O` [Compound 377, 5-[3-fluoro-4-(trifluoromethoxy)phenyl] sulfonyl-2-[(2-hydroxy-2-methyl-propanoyl)amino] thiophene-3-carboxamide], the EC50 in assay [1] stood at 0.935 µM; in assay [2] it was 0.711 µM; in assay [3], 0.135 µM; in assay [4], 0.0405 µM; in assay [5], 0.779 µM; in assay [6] it was 0.241 µM.
As to `C[C@@H](CO)C(=O)Nc1sc(S(=O)(=O)c2ccc(OC(F)(F)F)cc2)cc1C(N)=O` [Compound 379, 2-[[(2S)-3-hydroxy-2-methyl-propanoyl]amino]-5-[4-(trifluoromethoxy)phenyl] sulfonyl-thiophene-3-carboxamide], the EC50 was 0.155 µM in assay [1]; 0.655 µM in assay [2]; 0.0586 µM in assay [3]; 0.0167 µM in assay [4]; 0.0967 µM in assay [5]; 0.0758 µM in assay [6].
As for `CC(C)(O)C(=O)Nc1sc(S(=O)(=O)c2ccc(OC(F)F)cc2)cc1C(N)=O` [Compound 380, 5-[4-(difluoromethoxy)phenyl] sulfonyl-2-[(2-hydroxy-2-methyl-propanoyl)amino] thiophene-3-carboxamide], the half-maximal effective concentration (EC50) in assay [1] is 0.387 µM; in assay [2] it was 0.45 µM; in assay [3] it was 0.276 µM; in assay [4] it was 0.0176 µM; in assay [5], 0.144 µM; in assay [6], 0.107 µM.
In the case of `CC(CO)C(=O)Nc1sc(S(=O)(=O)c2ccc(Cl)cc2OC(F)(F)F)cc1C(N)=O` (stereo not drawn) [Compound 387, 5-[4-chloro-2-(trifluoromethoxy)phenyl] sulfonyl-2-[(3-hydroxy-2-methyl-propanoyl)amino] thiophene-3-carboxamide], the EC50 is 0.21 µM in assay [1]; 1.41 µM in assay [2]; 0.0836 µM in assay [3]; 0.0223 µM in assay [4]; 0.0495 µM in assay [5]; 0.0876 µM in assay [6].
For `CC(C)(O)C(=O)Nc1sc(S(=O)(=O)c2ccc(C(F)(F)F)nc2)cc1C(N)=O` [Compound 389, 2-[(2-hydroxy-2-methyl-propanoyl)amino]-5-[[6-(trifluoromethyl)-3-pyridyl]sulfonyl] thiophene-3-carboxamide], the EC50 in assay [1] stood at 0.531 µM; in assay [2], 0.813 µM; in assay [3] it was 0.204 µM; in assay [4], 0.0463 µM; in assay [5] it was 0.247 µM; in assay [6], 0.0915 µM.
Take `CC(C)(O)C(=O)Nc1sc(S(=O)(=O)c2cc(C(F)(F)F)ncc2Cl)cc1C(N)=O` [Compound 390, 5-[[5-chloro-2-(trifluoromethyl)-4-pyridyl]sulfonyl]-2-[(2-hydroxy-2-methyl-propanoyl)amino] thiophene-3-carboxamide]: the EC50 in assay [1] came out at 0.322 µM; in assay [2], 0.668 µM; in assay [3], 0.293 µM; in assay [4] it was 0.0441 µM; in assay [5], 0.221 µM; in assay [6] it was 0.103 µM.
Consider `CC(C)(O)C(=O)Nc1sc(S(=O)(=O)c2cc(Cl)ccc2OC(F)(F)F)cc1C(N)=O` [Compound 391, 5-[5-chloro-2-(trifluoromethoxy)phenyl] sulfonyl-2-[(2-hydroxy-2-methyl-propanoyl)amino] thiophene-3-carboxamide], for which the EC50 turned out to be 0.0421 µM in assay [1]; 0.0532 µM in assay [2]; 0.0259 µM in assay [3]; 0.0149 µM in assay [4]; 0.0338 µM in assay [5]; 0.0129 µM in assay [6].
As to `CC(C)(O)C(=O)Nc1sc(S(=O)(=O)c2ccc(C#N)cc2OC(F)(F)F)cc1C(N)=O` [Compound 393, 5-[4-cyano-2-(trifluoromethoxy)phenyl] sulfonyl-2-[(2-hydroxy-2-methyl-propanoyl)amino] thiophene-3-carboxamide], the EC50 in assay [1] stood at 0.256 µM; in assay [2], 0.662 µM; in assay [3] it was 0.159 µM; in assay [4], 0.0148 µM; in assay [5] it was 0.0476 µM; in assay [6], 0.0567 µM.
In the case of `CC(C)(O)C(=O)Nc1sc(S(=O)(=O)c2cnc(C(F)(F)F)nc2)cc1C(N)=O` [Compound 394, 2-[(2-hydroxy-2-methyl-propanoyl)amino]-5-[2-(trifluoromethyl)pyrimidin-5-yl]sulfonyl-thiophene-3-carboxamide], the EC50 in assay [1] (class symbol) was > 1 µM; in assay [2] (class symbol), > 1 µM; in assay [3], 3.33 µM; in assay [4], 0.354 µM; in assay [5], 3.31 µM; in assay [6], 3.33 µM.
In the case of `CC(C)(O)C(=O)Nc1sc(S(=O)(=O)c2cnc(C(F)(F)F)cn2)cc1C(N)=O` [Compound 397, 2-[(2-hydroxy-2-methyl-propanoyl)amino]-5-[5-(trifluoromethyl)pyrazin-2-yl]sulfonyl-thiophene-3-carboxamide], the EC50 in assay [1] came to 0.678 µM; in assay [2] it was 1.79 µM; in assay [3], 0.413 µM; in assay [4] it was 0.0307 µM; in assay [5] it was 0.259 µM; in assay [6], 0.417 µM.
Consider `CC(C)(O)C(=O)Nc1sc(S(=O)(=O)c2cc(Cl)ccc2OC(F)F)cc1C(N)=O` [Compound 401, 5-[5-chloro-2-(difluoromethoxy)phenyl] sulfonyl-2-[(2-hydroxy-2-methyl-propanoyl)amino] thiophene-3-carboxamide], for which the EC50 in assay [1] worked out at 0.0914 µM; in assay [2], 0.126 µM; in assay [3], 0.0493 µM; in assay [4] it was 0.00653 µM; in assay [5] it was 0.0865 µM; in assay [6], 0.105 µM.
`COc1cc(S(=O)(=O)c2cc(C(N)=O)c(NC(=O)C(C)(C)O)s2)c(OC(F)F)cc1F` [Compound 402, 5-[2-(difluoromethoxy)-4-fluoro-5-methoxy-phenyl] sulfonyl-2-[(2-hydroxy-2-methyl-propanoyl)amino] thiophene-3-carboxamide]: the EC50 in assay [1] is 1.02 µM; in assay [2] it was 1.4 µM; in assay [3] it was 3.33 µM; in assay [4], 0.0256 µM; in assay [5], 0.273 µM; in assay [6], 0.248 µM.
Consider `CC(C)(O)C(=O)Nc1sc(S(=O)(=O)c2cc(F)c(F)cc2OC(F)F)cc1C(N)=O` [Compound 404, 5-[2-(difluoromethoxy)-4,5-difluoro-phenyl] sulfonyl-2-[(2-hydroxy-2-methyl-propanoyl)amino] thiophene-3-carboxamide], for which the EC50 in assay [1] came out at 1.81 µM; in assay [2], 0.553 µM; in assay [3], 1.49 µM; in assay [4], 0.0143 µM; in assay [5], 0.283 µM; in assay [6] it was 0.126 µM.
Turning to `CC(C)(O)C(=O)Nc1sc(S(=O)(=O)c2c(F)cc(F)cc2OC(F)F)cc1C(N)=O` [Compound 405, 5-[2-(difluoromethoxy)-4,6-difluoro-phenyl]sulfonyl-2-[(2-hydroxy-2-methyl-propanoyl)amino] thiophene-3-carboxamide], the EC50 in assay [1] is 1.37 µM; in assay [2], 4.52 µM; in assay [3] it was 3.33 µM; in assay [4] it was 0.0196 µM; in assay [5], 0.155 µM; in assay [6], > 1 µM.
